≈ marks a conversion by molar mass, not a printed value. Calls of active or inactive are those of the source. No cut-off for these calls is given here.

The first assay has as its system Vaccinia virus. The experiment in a line: Antiviral activity against Vaccinia virus infected in primary rabbit kidney cells assessed as inhibition of virus-induced cytopathogenicity treated immediately after virus adsorption measured 2 to 3 days after virus infection. The class given is functional. The following applies: Orthopoxvirus vaccinia. On the technique in general: Protection from cytopathic effect is a common read-out in antiviral testing.
Regarding `CCc1cn([C@@H]2O[C@H](CO)[C@@H](O)[C@@H]2O)c(=O)nc1N`, the MIC was greater than 200 µg/mL.
Turning to `Nc1ccn([C@@H]2O[C@H](CO)[C@@H](O)[C@@H]2O)c(=O)n1` [CYTARABINE], the MIC was 0.02 µg/mL (≈ 0.0822 µM).
Same read-out and setting: with `CCc1cn([C@@H]2O[C@H](CO)[C@@H](O)[C@@H]2O)c(=O)[nH]c1=O` the figure was greater than 200 µg/mL; with `Cc1cn([C@@H]2O[C@H](CO)[C@@H](O)[C@@H]2O)c(=O)[nH]c1=O`, 4 µg/mL (≈ 15.5 µM).
The same measure, in the same setting: then `O=c1ccn([C@@H]2O[C@H](CO)[C@@H](O)[C@@H]2O)c(=O)[nH]1` [ARAURIDINE], with greater than 200 µg/mL.

For another assay, the system named is Vaccinia virus. The assay can be described thus: Antiviral activity against Vaccinia virus infected in primary rabbit kidney cells assessed as inhibition of virus-induced cytopathogenicity at 200 ug/ml treated immediately after virus adsorption measured 2 to 3 days after virus infection. The class given is functional, organism-based. The following applies: Orthopoxvirus vaccinia.
In the case of `CCc1cn([C@H]2O[C@H](CO)[C@@H](O)[C@@H]2O)c(=O)nc1N`, the inhibition entry was “inactive”.
Same read-out and setting: then `CCc1cn([C@H]2O[C@H](CO)[C@@H](O)[C@@H]2O)c(=O)[nH]c1=O`, with “inactive”.

(Values after ChEMBL document CHEMBL3227988, “Synthesis and antiviral activities of arabinofuranosyl-5-ethylpyrimidine nucleosides. Selective antiherpes activity of 1-(beta-D-arabinofuranosyl)-5-ethyluracil” (J Med Chem, 1979).)
